# Experiments:
# Assay type in all cases: cell-based
# MDA-MB-231 = assay: MTT cytotoxic activity against breast MDA-MB-231 cancer cell line; conditions: Homo sapiens, MDA-MB-231; MTT assay, 24 h treatment
# From the text: (§1) All the synthesised compounds were screened for their cytotoxic activity against breast MDA-MB-231 cancer cell line and compounds 6 and 12 against breast MCF-10A cell line taking CA-4 as a positive control for the analysis. The in vitro cytotoxicity results of the prepared compounds were systematised in Table 1. […] Structurally, the prepared molecules contain three structural variations; including rotatable hydrazide derivatives, the core exchange with imidazolone ring, and the ring expansion with triazinone motif. […] It is noticed that directly attached benzene ring to triazinone scaffold (compound 6) or bioisosteric group (thiazolyl ester) as in compound 12, may contribute to the astonishing cytotoxicity against breast MDA-MB-231 cancer cells.
# To measure the cytotoxic activity of the synthesised derivatives 2a–13e in breast cancer (MDA-MB-231) cell line. MTT assay method was applied to assess cell viability assay. All experimental steps were conducted as reported earlier.
# (§2) Part I: Biological Studies
# (§3) 4.3. Biological evaluation
# (§4) 4.3.1. Cytotoxic activity evaluation
# (§5) The cytotoxic actvity of the synthesized derivatives 2a-13e was measured in MDA-MB-231 breast cancer cell line and derivatives 6 and 12 in MCF-10A […].
# (§6) Cell viability assay was assessed using MTT assay method. Cells at density of 1 x 104 were seeded in a 96-well plate at 37 °C for 24 h under 5% CO2. After incubation, the cells were treated with different concentrations of the test schiff bases 2a-13e and incubated for 24 h, then 20 µl of MTT solution at 5 mg/mL was applied and incubated for 4 h at 37 °C.
# Dimethyl sulphoxide (DMSO) in volume of 100 µl was added to each well to dissolve the purple formazan that had formed. The color intensity of the formazan product, which represents the growth condition of the cells, is quantified by using an ELISA plate reader (EXL 800, USA) at 570 nm absorbance. The experimental conditions were carried out with at least three replicates, and the experiments were repeated at least three times. […]
# MCF-10A = assay: MTT cytotoxic activity against breast MCF-10A cell line; conditions: Homo sapiens, MCF-10A; MTT assay, 24 h treatment
# From the text: as §1, §2, §3, §4, §5, §6
# Dimethyl sulphoxide (DMSO) in volume of 100 µl was added to each well to dissolve the purple formazan that had formed. The color intensity of the formazan product, which represents the growth condition of the cells, is quantified by using an ELISA plate reader (EXL 800, USA) at 570 nm absorbance. […]
# (§7) Compounds 6, 12 and CA-4 were evaluated for their tubulin inhibitory activity according to manufacturer’s instructions using # abcam Human Beta-tubulin simplestep ELISA Kit ab245722. MDA-MB-231 cells were trypsinized, counted and seeded at the 2 × 105 into 96-well micro titer plates. […]
# (§8) (O.D.) was measured at 450±10 nm using microplate reader (Spectromax Plus 96 well plate […]
# β-tubulin = β-tubulin polymerisation inhibition assay (Human Beta-tubulin ELISA kit) on MDA-MB-231 cells; conditions: MDA-MB-231 cell line, each compound at its IC50 concentration
# Method: Trimethoxy phenyl fragment-containing natural stilbenoid-derived molecules, such as Colchicine and CA-4 bind to β-tubulin subunit at the colchicine binding site resulting in inhibition of microtubule assembly and suppression of its formation. […] From the obtained results it can be concluded that the antiproliferative activity of the synthesised triazinone-linked CA-4 derivatives may be derived from the inhibition of microtubule assembly.
# Triazinone derivatives 6 and 12 were assessed for their tubulin inhibitory activity according to manufacturer’s instructions using # abcam Human Beta-tubulin simple step ELISA Kit ab245722.
# as §2, §3, §4, §5, §6
# Dimethyl sulphoxide (DMSO) in volume of 100 µl was added to each well to dissolve the purple formazan that had formed. The color intensity of the formazan product, which represents the growth condition of the cells, is quantified by using an ELISA plate reader (EXL 800, USA) at 570 nm absorbance. The experimental conditions were carried out with at least three replicates, and the experiments were repeated at least three times.
# 4.3.2. Tubulin inhibitions Assay
# as §7, §8
structure (smiles),measurement,setting,value
"COc1ccc(/C=C\c2cc(OC)c(OC)c(OC)c2)cc1O [CA-4, Combretastatin-A4, reference compound]",IC50,MDA-MB-231,0.55 ± 0.09 µM
same,IC50,MCF-10A,8.91 ± 0.71 µM
same,% Inhibition of β-tubulin polymerisation,β-tubulin,87.05 ± 0.08%
